Data reported in patent US20050112573A1, “Method of detecting toxic substance” (priority 2001, published 2005).
Where two headings read alike, the source gives them in different places.

Legend:
Type in all cases: cell-based, Saccharomyces cerevisiae W303
[1] = tested on: promoter of yeast gene YOR382w
Excerpt: (§1) The inventors of the present application understood that the induction of certain yeast genes by toxic substances is caused by the activation of the promoters of the genes by the toxic substances. Thus, the inventors prepared a vector that comprised a polynucleotide sequence comprising the promoter of the yeast gene, which sequence is operably linked to a polynucleotide encoding a marker protein; and transformed yeast cells with the vector. […] The working examples hereinafter illustrate the preparation of such vectors, transformation of yeast cells by use of said vectors, and the detection of toxic substances by use of the transformed cells.
(§2) Promoter assay is a method for determining variations of the level of intracellular genes without destroying cells on the basis of the level of expressed marker genes instead of the expressed mRNA. The gene selected to detect a chemical substance is expressed in the absence of chemical substances, and thus a marker protein also occurs in the absence of chemical substances. In the method according to the present invention, the behavior of yeast genes on the addition of test materials is determined on the basis of the level of expressed marker protein so that the presence or the absence, and the kind of toxic chemical substances are predicted. Thus, it is desired that the production of marker proteins is lower in the absence of chemical substances, and the production of marker proteins is higher in the presence of chemical substances.
(§3) Type YEp shuttle vector pYES2 (pYES2, Cat no: V825-20, Invirtogen Corporation, USA), which can be replicated both in E. coli. and yeast was used as vector (R. W. Old, S. B. Primrose Principles of Gene Manipulation 5th Ed., BAIFUKAN CO., LTD, pp138-165, pp.234-263, 2000). The portion of vector pQBI 63 (Cat no.54-0082, Wako Pure Chemical Industries, Ltd.) corresponding to a marker protein GFP was used as the polynucleotide encoding GFP (SEQ ID No: 6). First, the GFP polynucleotide was inserted into the multiple cloning sites of pYES2 to give a vector. Thereafter, the GAL1 promoter of pYES2 was replaced with the polynucleotide comprising the promoter sequence of the intended yeast gene YOR382w (SEQ ID No: 3) to give an intended plasmid vector. Suitable restriction enzymes were selected, and the insertion of the polynucleotide comprising GFP and the promoter sequence was conducted.
(§4) Next, the yeast Saccharomyces cerevisiae W303 was transformed with the resultant plasmid vector according to the following procedures: • 1) Incubating the yeast Saccharomyces cerevisiae W303 in 200 ml of SD medium under shaking until OD 660 reaches 0.5; • 2) Suspending the collected cells in 5 ml of TE-buffer; • 3) Adding 250 μL of 2.5M lithium acetate; • 4) Dispending each 300 μl, adding 10 μl of above plasmid vector thereto, then incubating the suspensions at 30° C. for 30 minutes; • 5) Adding 700 μl of 50% PEG4000, and incubating the mixture under shaking at 30° C. for 60 minutes; • 6) Giving heat shock (42° C., 5 minutes), and then immediately cooling the mixture; • 7) Washing the mixture twice with 1M sorbitol; and • 8) Seeding it on agar plates made of minimum essential medium.
(§5) The cells of SC-YOR382W-pQBI as prepared in Example 4 were contacted to one of the following compounds. The yeast cells SC-YOR382W-pQBI were incubated at 25° C. in SD medium (Yeast nitrogen base without amino acids (Difco 0919-15)+glucose+amino acids (adenine, histidine, tryptophan)). One of toxic chemical substances as shown below was added to the cells at logarithmic growth phase, and then the cells were further incubated for two hours.

[2] = tested on: promoter of yeast gene YLR303w; conditions: SC-YCR303W-pQBI cells (so in the source); summary of Table 14
Excerpt: as §1, §2
as §3, with “YLR303w” for “YOR382w”, “5)” for “3)”
as §4
as §5, with “SC-YCR303W-pQBI” for “SC-YOR382W-pQBI”, “6” for “4”

[3] = tested on: promoter of yeast gene YLL057c; conditions: SC-YLL057C-pQBI cells; summary of Table 13
Excerpt: as §1, §2
as §3, with “PQBI” for “pQBI”, “GALL” for “GAL1”, “YLL057c” for “YOR382w”, “4)” for “3)”
as §4
as §5, with “SC-YLL057C-pQBI” for “SC-YOR382W-pQBI”, “5” for “4”

[4] = SC-YOR382W-pQBI cells, summary of Table 12

| SMILES | expression of GFP [1, 4] | expression of GFP [2] | expression of GFP [1] | expression of GFP [3] |
| --- | --- | --- | --- | --- |
| CCCCCCCCCc1ccc(O)cc1 [p-nonylphenol] | induced the expression of GFP | – | – | – |
| c1ccc2c(c1)cc1ccc3cccc4ccc2c1c34 [benzo(a)pyrene] | – | induced the expression of GFP | – | – |
| Oc1ccccc1 [phenol] | – | – | induced the expression of GFP | – |
| O=C(O)COc1ccc(Cl)cc1Cl [2,4-dichlorophenoxyacetic acid] | induced the expression of GFP | induced the expression of GFP | – | induced the expression of GFP |
